From patent publication US8252832B2, “Kinesin inhibitors as cancer therapeutics” (Novartis AG, priority 2007, dated 2012)
Read-outs that look alike come from different tables or passages of the source.

Tests used:
Assay in all cases: CellTiter-Glo, NCI60 panel
Format in all cases: cell-based
A498 = details: Renal; for GI50: Homo sapiens
From the text: (§1) Identification of tumor types that are the most sensitive to the KSP inhibitors of the present invention can be accomplished using an unbiased approach that uses several cell-based assays. The assays chosen were as follows: • CellTiter-Glo®. This is an assay designed to measure ATP concentration in a cell culture, and can be correlated to cell number. Briefly CellTiter-Glo® (Promega Corporation) is a homogeneous method using the single CellTiter-Glo® reagent to detect ATP wherein ATP in the assay drives the activity of a thermostable luciferase to create a luminescent signal which can then be measured and correlated with the number of viable cells. Briefly, for adherent cells, 1,000 to 5,000 cells/well were plated in 96-well plates (100 μl/well) and let to adhere for 24 hours before being treated with drug. For non-adherent cells, 1,000 to 10,000 cells/well were plated in 96-well plates (100 μl/well) and immediately treated with drug. Drug dilutions were prepared in DMSO at 1000 times the final concentration. These dilutions were then diluted 1/100 in growth media before being added to the cells (11 μl/well) to achieve the desired final concentration. After 48 h in a 37° C. tissue culture incubator, the plates were processed for the CellTiter-Glo®assay according to the manufacturer's instructions. Protocol for a 72 hour cell proliferation assay: The 72 hour assay was performed the same way as the 48 hour assay except for the following modifications: For adherent cells, 500 to 5,000 cells/well were plated in 96-well plates (90 μl/well cell growth media) and left to adhere for 24 hours before being treated with drug. For non-adherent cells, 1,000 to 10,000 cells/well were plated in 96-well plates (90 μl/well cell growth media) and immediately treated with drug. Data values presented represent the concentration of test compound required for a 50% reduction in growth. • LDH release. The Cytotoxicity Detection KitPLUS (LDH) assay (Roche Diagnostics, Manheim, Germany) measures the amount of LDH released in the media by dying cells; LDH catalyzes the conversion of lactate into pyruvate. The enzymatic reaction is coupled to a chemical reaction that uses a tetrazolium salt to form a formazan that is red and can be detected by its absorbance at 490 nm. This assay measures the amount of cell death after drug treatment. Cells were plated at 10,000 cells/well in 96-well plates (100 μl/well). Adherent cells were let to adhere for 24 hours before being treated with drug, whereas non-adherent cells were immediately treated with drug. Drug dilutions were prepared in DMSO at 1000 times the final concentration. These dilutions were then diluted 1/100 in growth media before being added to the cells (11 μl/well) to achieve the desired final concentration. After 48 h in a 37° C. tissue culture incubator, the plates were processed for the Cytotoxicity Detection KitPLUS (LDH) assay according to the manufacturer's instructions. The media only values were subtracted from all the data points before analysis. Data values presented correspond to the compound concentration wherein LDH output is at half maximal level. • Caspase-Glo® 3/7. The Caspase-Glo® 3/7 Assay (Promega Corporation) is a homogeneous luminescent assay that measures caspase-3/7 activities. The assay provides a proluminescent caspase-3/7 DEVD-aminoluciferin substrate and a thermostable luciferase in a reagent optimized for caspase-3/7 activity, luciferase activity and cell lysis. Adding the single Caspase-Glo® 3/7 Reagent results in cell lysis, followed by caspase cleavage of the substrate. This liberates free aminoluciferin, which is consumed by the luciferase, generating a luminescent signal. The signal is proportional to caspase-3/7 activity. Data values presented correspond to the compound concentration wherein caspase 3/7 activity is at half maximal level. […]

A549 = details: NSCL; for GI50: Homo sapiens
From the text: as §1

BT-549 = details: Breast; for GI50: Homo sapiens
From the text: as §1

EKVX = details: NSCL; for GI50: Homo sapiens
From the text: as §1

HL-60 = details: Leukemia; for GI50: Homo sapiens
From the text: as §1

HOP-92 = details: NSCL; for GI50: Homo sapiens
From the text: as §1

K-562 = details: for GI50: Homo sapiens, K562, Leukemia
From the text: as §1

NCI-H226 = details: NSCL; for GI50: Homo sapiens
From the text: as §1

PC-3 = details: Prostate; for GI50: Homo sapiens
From the text: as §1

RPMI-8226 = details: Leukemia; for GI50: Homo sapiens
From the text: as §1

SF-539 = details: CNS; for GI50: Homo sapiens
From the text: as §1

SK-MEL-5 = details: Melanoma; for GI50: Homo sapiens
From the text: as §1

SK-OV-3 = details: Ovarian; for GI50: Homo sapiens
From the text: as §1

SNB-19 = details: CNS; for GI50: Homo sapiens
From the text: as §1

SR = details: Leukemia; for GI50: Homo sapiens
From the text: as §1

SW-620 = details: Colon; for GI50: Homo sapiens
From the text: as §1

[1] = GI50 in nM, read-out: Log(GI50) (converted)

CC(C)(C)[C@H](c1nc(-c2cc(F)ccc2F)cn1Cc1ccccc1)N(CC[C@H](N)CF)C(=O)CO [Compound IIa]
GI50 (A498; [1]): 10 nM | GI50 (A498; read-out: GI50): 10 nM | Differential vs mean Log(GI50) (A498): −0.669 | GI50 (A549; [1]): 10 nM | GI50 (A549; read-out: GI50): 10 nM | Differential vs mean Log(GI50) (A549): −0.669 | Differential vs mean Log(GI50) (BT-549): 0.423 | GI50 (BT-549; [1]): 0.809 nM | GI50 (BT-549; read-out: GI50): 0.809 nM | GI50 (EKVX; [1]): 10 nM | GI50 (EKVX; read-out: GI50): 10 nM | Differential vs mean Log(GI50) (EKVX): −0.669 | GI50 (HL-60; [1]): 0.165 nM | GI50 (HL-60; read-out: GI50): 0.165 nM | Differential vs mean Log(GI50) (HL-60): 1.114 | GI50 (HOP-92; [1]): 10 nM | GI50 (HOP-92; read-out: GI50): 10 nM | Differential vs mean Log(GI50) (HOP-92): −0.669 | GI50 (K-562; [1]): 0.218 nM | GI50 (K-562; read-out: GI50): 0.218 nM | Differential vs mean Log(GI50) (K-562; Leukemia): 0.993 | GI50 (NCI-H226; [1]): 10 nM | GI50 (NCI-H226; read-out: GI50): 10 nM | Differential vs mean Log(GI50) (NCI-H226): −0.669 | GI50 (PC-3; [1]): 10 nM | GI50 (PC-3; read-out: GI50): 10 nM | Differential vs mean Log(GI50) (PC-3): −0.669 | GI50 (RPMI-8226; [1]): 0.351 nM | GI50 (RPMI-8226; read-out: GI50): 0.351 nM | Differential vs mean Log(GI50) (RPMI-8226): 0.786 | Differential vs mean Log(GI50) (SF-539): 0.743 | GI50 (SF-539; [1]): 0.387 nM | GI50 (SF-539; read-out: GI50): 0.387 nM | GI50 (SK-MEL-5; [1]): 10 nM | GI50 (SK-MEL-5; read-out: GI50): 10 nM | Differential vs mean Log(GI50) (SK-MEL-5): −0.669 | GI50 (SK-OV-3; [1]): 0.421 nM | GI50 (SK-OV-3; read-out: GI50): 0.421 nM | Differential vs mean Log(GI50) (SK-OV-3): 0.707 | Differential vs mean Log(GI50) (SNB-19): −0.669 | GI50 (SNB-19; [1]): 10 nM | GI50 (SNB-19; read-out: GI50): 10 nM | GI50 (SR; [1]): 0.095 nM | GI50 (SR; read-out: GI50): 0.095 nM | Differential vs mean Log(GI50) (SR): 1.353 | Differential vs mean Log(GI50) (SW-620): 0.958 | GI50 (SW-620; [1]): 0.236 nM | GI50 (SW-620; read-out: GI50): 0.236 nM
